Data from patent US20090270371A1, “QUINOLINE DERIVATIVES USEFUL IN THE TREATMENT OF MGLUR5 RECEPTOR-MEDIATED DISORDERS” (priority 2005, published 2009).

target: T1, rat mGluR5 receptors (Rattus norvegicus, UniProt P31424); assay: mGluR5 receptor binding test, rat cerebro-cortical membrane preparation, [3H]-M-MPEP; details: affinity for rat mGluR5 receptors; [3H]-M-MPEP (2 nM) radioligand
T1 construct: rat cerebro-cortical membrane preparation was used; from tissue; host or cells: rat cerebral cortex membranes
T1 sequence (P31424 21-1203): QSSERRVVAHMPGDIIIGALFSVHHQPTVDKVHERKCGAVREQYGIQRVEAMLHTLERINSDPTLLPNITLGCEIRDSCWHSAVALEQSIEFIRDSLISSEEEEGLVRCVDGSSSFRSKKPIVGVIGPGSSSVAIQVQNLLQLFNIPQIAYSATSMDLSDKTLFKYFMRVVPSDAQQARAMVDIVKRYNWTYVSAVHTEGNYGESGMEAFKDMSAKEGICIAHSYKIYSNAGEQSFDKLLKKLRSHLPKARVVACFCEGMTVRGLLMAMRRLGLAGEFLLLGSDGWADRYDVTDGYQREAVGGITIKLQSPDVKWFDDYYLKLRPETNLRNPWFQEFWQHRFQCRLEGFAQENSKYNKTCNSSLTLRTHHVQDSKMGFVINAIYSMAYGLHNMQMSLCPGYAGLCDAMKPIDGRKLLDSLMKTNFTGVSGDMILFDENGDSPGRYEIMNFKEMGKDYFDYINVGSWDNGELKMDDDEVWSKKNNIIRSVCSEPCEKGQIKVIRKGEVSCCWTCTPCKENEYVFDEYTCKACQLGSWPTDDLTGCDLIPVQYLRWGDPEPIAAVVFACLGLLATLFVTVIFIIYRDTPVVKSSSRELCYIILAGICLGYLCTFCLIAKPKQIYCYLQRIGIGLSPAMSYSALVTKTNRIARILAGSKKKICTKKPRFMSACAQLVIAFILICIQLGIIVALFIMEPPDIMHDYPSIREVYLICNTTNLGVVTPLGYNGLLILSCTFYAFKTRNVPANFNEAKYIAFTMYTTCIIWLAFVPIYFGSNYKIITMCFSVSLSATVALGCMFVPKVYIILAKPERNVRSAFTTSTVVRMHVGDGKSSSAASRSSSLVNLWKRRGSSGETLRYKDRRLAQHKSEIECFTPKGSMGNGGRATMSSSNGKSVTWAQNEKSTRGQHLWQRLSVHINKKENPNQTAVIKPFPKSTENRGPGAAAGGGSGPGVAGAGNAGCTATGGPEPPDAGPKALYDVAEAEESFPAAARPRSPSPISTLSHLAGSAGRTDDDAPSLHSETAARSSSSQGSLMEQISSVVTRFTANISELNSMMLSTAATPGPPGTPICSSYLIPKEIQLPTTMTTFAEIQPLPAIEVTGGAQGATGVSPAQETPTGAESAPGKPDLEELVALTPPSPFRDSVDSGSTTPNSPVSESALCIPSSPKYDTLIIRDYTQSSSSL
Outline: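 Radioligand binding used rat cerebro-cortical membranes with 2 nM [3H]-M-MPEP. Nonspecific binding was defined with 10 μM M-MPEP. The method follows a modification of a published procedure.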

Ki [nM] | SMILES
> 500 | O=S(=O)(c1cc(F)cc(F)c1)c1cnc2cc(F)ccc2c1N1CCOCC1 [Compound 310]
200 to 500 | N#Cc1cccc(S(=O)(=O)c2cnc3cc(F)ccc3c2N2CCOCC2)c1 [Compound 311]
< 200 | Cc1ccc(S(=O)(=O)c2cnc3cc(F)ccc3c2N2CCOCC2)cc1Cl [Compound 312]
> 500 | COc1ccc(S(=O)(=O)c2cnc3cc(F)ccc3c2N2CCOCC2)cc1 [Compound 313]
200 to 500 | Cc1ccc(S(=O)(=O)c2cnc3cc(F)ccc3c2N2CCOCC2)cc1C [Compound 314]
200 to 500 | O=S(=O)(c1ccc(F)c(F)c1)c1cnc2cc(F)ccc2c1N1CCOCC1 [Compound 315]
< 200 | O=S(=O)(c1ccc(Cl)c(Cl)c1)c1cnc2cc(F)ccc2c1N1CCOCC1 [Compound 316]
200 to 500 | Cc1cc(C)cc(S(=O)(=O)c2cnc3cc(F)ccc3c2N2CCOCC2)c1 [Compound 317]
< 200 | O=S(=O)(c1cc(Cl)cc(Cl)c1)c1cnc2cc(Cl)ccc2c1N1CCOCC1 [Compound 318]
200 to 500 | O=S(=O)(c1cc(F)cc(F)c1)c1cnc2cc(Cl)ccc2c1N1CCOCC1 [Compound 319]
200 to 500 | N#Cc1cccc(S(=O)(=O)c2cnc3cc(Cl)ccc3c2N2CCOCC2)c1 [Compound 320]
> 500 | O=S(=O)(c1ccc(F)cc1)c1cnc2cc(Cl)ccc2c1N1CCOCC1 [Compound 321]
> 500 | COc1ccc(S(=O)(=O)c2cnc3cc(Cl)ccc3c2N2CCOCC2)cc1 [Compound 322]
> 500 | O=S(=O)(c1ccccc1)c1cnc2cc(Cl)ccc2c1N1CCOCC1 [Compound 323]
200 to 500 | O=S(=O)(c1ccc(Cl)cc1)c1cnc2cc(Cl)ccc2c1N1CCOCC1 [Compound 324]
> 500 | O=S(=O)(c1cccc(F)c1)c1cnc2cc(Cl)ccc2c1N1CCOCC1 [Compound 325]
200 to 500 | COc1cccc(S(=O)(=O)c2cnc3cc(Cl)ccc3c2N2CCOCC2)c1 [Compound 326]
< 200 | Cc1ccc(S(=O)(=O)c2cnc3cc(Cl)ccc3c2N2CCOCC2)cc1C [Compound 327]
< 200 | O=S(=O)(c1cccc(Cl)c1)c1cnc2cc(Cl)ccc2c1N1CCOCC1 [Compound 328]
< 200 | Cc1ccc(S(=O)(=O)c2cnc3cc(Cl)ccc3c2N2CCOCC2)cc1Cl [Compound 329]
200 to 500 | COc1ccc(S(=O)(=O)c2cnc3cc(Cl)ccc3c2N2CCOCC2)cc1Cl [Compound 330]
> 500 | O=S(=O)(c1ccc(F)c(F)c1)c1cnc2cc(Cl)ccc2c1N1CCOCC1 [Compound 331]
< 200 | O=S(=O)(c1ccc(Cl)c(Cl)c1)c1cnc2cc(Cl)ccc2c1N1CCOCC1 [Compound 332]
> 500 | Cc1cc(C)cc(S(=O)(=O)c2cnc3cc(Cl)ccc3c2N2CCOCC2)c1 [Compound 333]
< 200 | O=S(=O)(c1ccc(F)c(Cl)c1)c1cnc2cc(Cl)ccc2c1N1CCOCC1 [Compound 334]
200 to 500 | O=S(=O)(c1cc(Cl)cc(Cl)c1)c1cnc2c(F)cccc2c1N1CCOCC1 [Compound 335]
200 to 500 | O=S(=O)(c1cc(F)cc(F)c1)c1cnc2c(F)cccc2c1N1CCOCC1 [Compound 336]

Further lines, the compound ahead of its results:

SMILES | Ki [nM]
CC1CCN(c2c(S(=O)(=O)c3ccc(Cl)cc3)cnc3c(Cl)ccc(Cl)c23)CC1 [Compound 253] | 200 to 500
Cc1ccc2ncc(S(=O)(=O)c3ccccc3)c(N3CCOCC3)c2c1 [Compound 254] | < 200
Cc1ccc2ncc(S(=O)(=O)c3cc(F)cc(F)c3)c(N3CCOCC3)c2c1 [Compound 255] | > 500
Cc1ccc2ncc(S(=O)(=O)c3cccc(C#N)c3)c(N3CCOCC3)c2c1 [Compound 256] | 200 to 500
Cc1ccc2ncc(S(=O)(=O)c3ccc(F)cc3)c(N3CCOCC3)c2c1 [Compound 257] | > 500
COc1ccc(S(=O)(=O)c2cnc3ccc(C)cc3c2N2CCOCC2)cc1 [Compound 258] | > 500
Cc1ccc2ncc(S(=O)(=O)c3cccc(F)c3)c(N3CCOCC3)c2c1 [Compound 259] | > 500
COc1cccc(S(=O)(=O)c2cnc3ccc(C)cc3c2N2CCOCC2)c1 [Compound 260] | 200 to 500
COc1ccc(S(=O)(=O)c2cnc3ccc(C)cc3c2N2CCOCC2)cc1Cl [Compound 261] | 200 to 500
Cc1ccc2ncc(S(=O)(=O)c3ccc(Cl)c(Cl)c3)c(N3CCOCC3)c2c1 [Compound 262] | 200 to 500
Cc1ccc2ncc(S(=O)(=O)c3cccc(Cl)c3)c(N3CCOCC3)c2c1 [Compound 263] | > 500
Cc1ccc2ncc(S(=O)(=O)c3cc(Cl)cc(Cl)c3)c(N3CCOCC3)c2c1 [Compound 264] | 200 to 500
Cc1ccc2ncc(S(=O)(=O)c3ccc(C#N)cc3)c(N3CCOCC3)c2c1 [Compound 265] | > 500
Cc1ccc2ncc(S(=O)(=O)c3ccc(C)c(Cl)c3)c(N3CCOCC3)c2c1 [Compound 266] | 200 to 500
Cc1ccc2ncc(S(=O)(=O)c3ccc(C)c(F)c3)c(N3CCOCC3)c2c1 [Compound 267] | > 500
Cc1ccc2ncc(S(=O)(=O)c3ccc(F)c(F)c3)c(N3CCOCC3)c2c1 [Compound 268] | > 500
COc1ccc2ncc(S(=O)(=O)c3ccccc3)c(N3CCOCC3)c2c1 [Compound 269] | 200 to 500
COc1ccc2ncc(S(=O)(=O)c3ccc(Cl)cc3)c(N3CCOCC3)c2c1 [Compound 270] | < 200
COc1ccc2ncc(S(=O)(=O)c3cc(Cl)cc(Cl)c3)c(N3CCOCC3)c2c1 [Compound 271] | > 500

SMILES | Ki [nM]
COc1ccc2ncc(S(=O)(=O)c3cc(F)cc(F)c3)c(N3CCOCC3)c2c1 [Compound 272] | > 500
COc1ccc2ncc(S(=O)(=O)c3cccc(C#N)c3)c(N3CCOCC3)c2c1 [Compound 273] | > 500
COc1ccc2ncc(S(=O)(=O)c3cccc(Cl)c3)c(N3CCOCC3)c2c1 [Compound 274] | > 500
COc1ccc2ncc(S(=O)(=O)c3ccc(F)cc3)c(N3CCOCC3)c2c1 [Compound 275] | > 500
COc1ccc2ncc(S(=O)(=O)c3ccc(C)c(Cl)c3)c(N3CCOCC3)c2c1 [Compound 276] | > 500
COc1ccc2ncc(S(=O)(=O)c3ccc(OC)c(Cl)c3)c(N3CCOCC3)c2c1 [Compound 277] | > 500
COc1ccc2ncc(S(=O)(=O)c3ccc(Cl)c(Cl)c3)c(N3CCOCC3)c2c1 [Compound 278] | > 500
O=S(=O)(c1ccccc1)c1cnc2ccc(F)cc2c1N1CCOCC1 [Compound 279] | < 200
O=S(=O)(c1cc(Cl)cc(Cl)c1)c1cnc2ccc(F)cc2c1N1CCOCC1 [Compound 280] | > 500
N#Cc1cccc(S(=O)(=O)c2cnc3ccc(F)cc3c2N2CCOCC2)c1 [Compound 281] | > 500
COc1ccc(S(=O)(=O)c2cnc3ccc(F)cc3c2N2CCOCC2)cc1 [Compound 282] | > 500
COc1cccc(S(=O)(=O)c2cnc3ccc(F)cc3c2N2CCOCC2)c1 [Compound 283] | > 500
COc1ccc(S(=O)(=O)c2cnc3ccc(F)cc3c2N2CCOCC2)cc1Cl [Compound 284] | > 500
O=S(=O)(c1cccc(Cl)c1)c1cnc2ccc(F)cc2c1N1CCOCC1 [Compound 285] | > 500
O=S(=O)(c1ccc(Cl)c(Cl)c1)c1cnc2ccc(F)cc2c1N1CCOCC1 [Compound 286] | 200 to 500
Cc1ccc(S(=O)(=O)c2cnc3ccc(F)cc3c2N2CCOCC2)cc1F [Compound 287] | > 500
Cc1ccc(S(=O)(=O)c2cnc3ccc(F)cc3c2N2CCOCC2)cc1Cl [Compound 288] | 200 to 500
Cc1cc(C)cc(S(=O)(=O)c2cnc3ccc(F)cc3c2N2CCOCC2)c1 [Compound 289] | > 500
O=S(=O)(c1ccc(F)c(Cl)c1)c1cnc2ccc(F)cc2c1N1CCOCC1 [Compound 290] | 200 to 500

SMILES | Ki [nM]
O=S(=O)(c1ccccc1)c1cnc2ccc(Cl)cc2c1N1CCOCC1 [Compound 291] | > 500
Cc1ccc(S(=O)(=O)c2cnc3ccc(Cl)cc3c2N2CCOCC2)cc1 [Compound 292] | < 200
O=S(=O)(c1cc(Cl)cc(Cl)c1)c1cnc2ccc(Cl)cc2c1N1CCOCC1 [Compound 293] | > 500
O=S(=O)(c1cc(F)cc(F)c1)c1cnc2ccc(Cl)cc2c1N1CCOCC1 [Compound 294] | > 500
O=S(=O)(c1ccc(Cl)cc1)c1cnc2ccc(Cl)cc2c1N1CCOCC1 [Compound 295] | > 500
COc1cccc(S(=O)(=O)c2cnc3ccc(Cl)cc3c2N2CCOCC2)c1 [Compound 296] | > 500
O=S(=O)(c1cccc(Cl)c1)c1cnc2ccc(Cl)cc2c1N1CCOCC1 [Compound 297] | > 500
O=S(=O)(c1ccc(Cl)c(Cl)c1)c1cnc2ccc(Cl)cc2c1N1CCOCC1 [Compound 298] | 200 to 500
N#Cc1cccc(S(=O)(=O)c2cnc3ccc(Cl)cc3c2N2CCOCC2)c1 [Compound 299] | > 500
Cc1ccc(S(=O)(=O)c2cnc3ccc(Cl)cc3c2N2CCOCC2)cc1Cl [Compound 300] | 200 to 500
COc1ccc(S(=O)(=O)c2cnc3ccc(Cl)cc3c2N2CCOCC2)cc1Cl [Compound 301] | > 500
O=S(=O)(c1ccc(F)c(Cl)c1)c1cnc2ccc(Cl)cc2c1N1CCOCC1 [Compound 302] | > 500
Cc1ccc(S(=O)(=O)c2cnc3cc(F)ccc3c2N2CCOCC2)cc1 [Compound 303] | > 500
O=S(=O)(c1ccccc1)c1cnc2cc(F)ccc2c1N1CCOCC1 [Compound 304] | > 500
O=S(=O)(c1ccc(Cl)cc1)c1cnc2cc(F)ccc2c1N1CCOCC1 [Compound 305] | > 500
COc1cccc(S(=O)(=O)c2cnc3cc(F)ccc3c2N2CCOCC2)c1 [Compound 306] | 200 to 500
COc1ccc(S(=O)(=O)c2cnc3cc(F)ccc3c2N2CCOCC2)cc1Cl [Compound 307] | 200 to 500
O=S(=O)(c1cc(Cl)cc(Cl)c1)c1cnc2cc(F)ccc2c1N1CCOCC1 [Compound 308] | 200 to 500
Cc1ccc(S(=O)(=O)c2cnc3cc(F)ccc3c2N2CCOCC2)cc1F [Compound 309] | 200 to 500
